Assay results published in patent US10035790B2, “RORγ modulators” (BRISTOL-MYERS SQUIBB COMPANY, priority 2012, dated 2018).

These molecules were tested against T1, ligand binding domain of human RORγ (A262-S507) (Homo sapiens, UniProt P51449) (assay: General RORγ SPA binding assay (competition with [3H]25-hydroxycholesterol)). Conditions: RORγ SPA binding assay, inhibition of [3H]25-hydroxycholesterol binding; read-out: IC50.
T1 construct: made in house; host or cells: E. coli
T1 sequence (P51449 262-507): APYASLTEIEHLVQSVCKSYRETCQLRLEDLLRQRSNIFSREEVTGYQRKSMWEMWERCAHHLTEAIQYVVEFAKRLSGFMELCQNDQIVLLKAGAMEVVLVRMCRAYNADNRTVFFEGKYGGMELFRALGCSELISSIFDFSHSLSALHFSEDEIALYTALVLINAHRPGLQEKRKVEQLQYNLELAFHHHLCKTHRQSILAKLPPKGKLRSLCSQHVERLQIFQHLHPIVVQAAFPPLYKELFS
Summary of the method: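 N-terminally His-tagged protein was expressed in E. coli and nickel-purified. Then 50 nM protein was preincubated with compound for 15 min at room temperature in PBS with 0.5% fatty acid free BSA, followed by radioligand for 15 min and copper His-tag SPA beads for 30 min. IC50 came from percent inhibition of binding.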
With `Nc1ncc(C(N)COc2cccc(C(F)(F)F)n2)c(C2CCN(C(=O)Nc3c(F)cccc3F)CC2)n1` (stereo not drawn) [Compound N24, 4-[2-Amino-5-(1-amino-2-{[6-(trifluoromethyl)pyridin-2-yl]oxy}ethyl)pyrimidin-4-yl]-N-(2,6-difluorophenyl)piperidine-1-carboxamide] the IC50 was 9.3 nM. Work on `Cc1ncc(/C(COc2cccc(C(F)(F)F)n2)=N/O)c(C2CCN(C(=O)Nc3c(F)cccc3F)CC2)n1` [Compound N26, N-(2,6-difluorophenyl)-4-{5-[(1Z)—N-hydroxy-2-{[6-(trifluoromethyl)pyridin-2-yl]oxy}ethanimidoyl]-2-methylpyrimidin-4-yl}piperidine-1-carboxamide] yielded an IC50 of 141 nM. Work on `CNC(COc1cccc(C(F)(F)F)n1)c1cnc(N)nc1C1CCN(C(=O)Nc2c(F)cccc2F)CC1` (stereo not drawn) [Compound N27, 4-{2-Amino-5-[1-(methylamino)-2-{[6-(trifluoromethyl)pyridin-2-yl]oxy}ethyl]pyrimidin-4-yl}-N-(2,6-difluorophenyl)piperidine-1-carboxamide] yielded an IC50 of 18.2 nM. `CC(=O)N1CCC(NC(COc2cccc(C(F)(F)F)n2)c2cnc(C)nc2C2CCN(C(=O)Nc3c(F)cccc3F)CC2)CC1` (stereo not drawn) [Compound N28, 4-[5-(1-[(1-Acetylpiperidin-4-yl)amino]-2-{[6-(trifluoromethyl)pyridin-2-yl]oxy}ethyl)-2-methylpyrimidin-4-yl]-N-(2,6-difluorophenyl)piperidine-1-carboxamide] gave an IC50 of 71 nM. With `Nc1ncc(C(N)COc2cccc(C(F)(F)F)n2)c(C2CCN(C(=O)Oc3ccccc3F)CC2)n1` (stereo not drawn) [Compound N29, 2-Fluorophenyl 4-[2-amino-5-(1-amino-2-{[6-(trifluoromethyl)pyridin-2-yl]oxy}ethyl)pyrimidin-4-yl]piperidine-1-carboxylate] the IC50 was 10000 nM. Molecule `Cc1ncc(C(O)(CCO)COc2cccc(C(F)(F)F)n2)c(C2CCN(C(=O)Nc3c(F)cccc3F)CC2)n1` (stereo not drawn) [Compound N30, N-(2,6-Difluorophenyl)-4-{5-[1,3-dihydroxy-1-({[6-(trifluoromethyl)pyridin-2-yl]oxy}methyl)propyl]-2-methylpyrimidin-4-yl}piperidine-1-carboxamide] has an IC50 of 10.9 nM. `Cc1ncc(C(O)(CCN)COc2cccc(C(F)(F)F)n2)c(C2CCN(C(=O)Nc3c(F)cccc3F)CC2)n1` (stereo not drawn) [Compound N31, 4-(5-(4-Amino-2-hydroxy-1-(6-(trifluoromethyl)pyridin-2-yloxy)butan-2-yl)-2-methylpyrimidin-4-yl)-N-(2,6-difluorophenyl)piperidine-1-carboxamide] was tested, and the IC50 was 620 nM. In the case of `Cc1ncc(C(O)(CO)COc2cccc(C(F)(F)F)n2)c(C2CCN(C(=O)Nc3c(F)cccc3F)CC2)n1` (stereo not drawn) [Compound N32, N-(2,6-Difluorophenyl)-4-{5-[1,2-dihydroxy-1-({[6-(trifluoromethyl)pyridin-2-yl]oxy}methyl)ethyl]-2-methylpyrimidin-4-yl}piperidine-1-carboxamide], the IC50 is reported as 5.7 nM. Work on `Cc1ncc(C(O)(CN=[N+]=[N-])COc2cccc(C(F)(F)F)n2)c(C2CCN(C(=O)Nc3c(F)cccc3F)CC2)n1` (stereo not drawn) [Compound N33, 4-{5-[2-Azido-1-hydroxy-1-({[6-(trifluoromethyl)pyridin-2-yl]oxy}methyl)ethyl]-2-methylpyrimidin-4-yl}-N-(2,6-difluorophenyl)piperidine-1-carboxamide] yielded an IC50 of 2.9 nM. `Cc1ncc(C(O)(CN)COc2cccc(C(F)(F)F)n2)c(C2CCN(C(=O)Nc3c(F)cccc3F)CC2)n1` (stereo not drawn) [Compound N34, 4-{5-[2-Amino-1-hydroxy-1-({[6-(trifluoromethyl)pyridin-2-yl]oxy}methyl)ethyl]-2-methylpyrimidin-4-yl}-N-(2,6-difluorophenyl)piperidine-1-carboxamide] was tested, and the IC50 was 12.8 nM. For `Cc1ncc(C(O)(CN)COc2cccc(C(F)(F)F)n2)c(C2CCN(C(=O)Cc3c(F)cccc3F)CC2)n1` (stereo not drawn) [Compound N35, 1-Amino-2-(4-{1-[(2,6-difluorophenyl)acetyl]piperidin-4-yl}-2-methylpyrimidin-5-yl)-3-{[6-(trifluoromethyl)pyridin-2-yl]oxy}propan-2-ol], the IC50 was 5.5 nM. For `CCNC(=O)NCC(O)(COc1cccc(C(F)(F)F)n1)c1cnc(C)nc1C1CCN(C(=O)Nc2c(F)cccc2F)CC1` (stereo not drawn) [Compound N36, N-(2,6-Difluorophenyl)-4-{5-[2-{[(ethylamino)carbonyl]amino}-1-hydroxy-1-({[6-(trifluoromethyl)pyridin-2-yl]oxy}methyl)ethyl]-2-methylpyrimidin-4-yl}piperidine-1-carboxamide], the IC50 was 47.8 nM. `CC(=O)NCC(O)(COc1cccc(C(F)(F)F)n1)c1cnc(C)nc1C1CCN(C(=O)Nc2c(F)cccc2F)CC1` (stereo not drawn) [Compound N37, 4-{5-[2-(Acetylamino)-1-hydroxy-1-({[6-(trifluoromethyl)pyridin-2-yl]oxy}methyl)ethyl]-2-methylpyrimidin-4-yl}-N-(2,6-difluorophenyl)piperidine-1-carboxamide] gave an IC50 of 36.9 nM. For `CC(=O)NCCNCC(O)(COc1cccc(C(F)(F)F)n1)c1cnc(C)nc1C1CCN(C(=O)Nc2c(F)cccc2F)CC1` (stereo not drawn) [Compound N38, 4-{5-[2-{[2-(Acetylamino)ethyl]amino}-1-hydroxy-1-({[6-(trifluoromethyl)pyridin-2-yl]oxy}methyl)ethyl]-2-methylpyrimidin-4-yl}-N-(2,6-difluorophenyl)piperidine-1-carboxamide], the IC50 was 57.9 nM. `CC(=O)N1CCN(CC(O)(COc2cccc(C(F)(F)F)n2)c2cnc(C)nc2C2CCN(C(=O)Nc3c(F)cccc3F)CC2)CC1` (stereo not drawn) [Compound N39, 4-{5-[2-(4-Acetylpiperazin-1-yl)-1-hydroxy-1-({[6-(trifluoromethyl)pyridin-2-yl]oxy}methyl)ethyl]-2-methylpyrimidin-4-yl}-N-(2,6-difluorophenyl)piperidine-1-carboxamide] showed an IC50 of 84.1 nM. In the case of `CC(=O)N1CCC(NCC(O)(COc2cccc(C(F)(F)F)n2)c2cnc(C)nc2C2CCN(C(=O)Nc3c(F)cccc3F)CC2)C1` (stereo not drawn) [Compound N40, 4-(5-{2-[(1-Acetylpyrrolidin-3-yl)amino]-1-hydroxy-1-({[6-(trifluoromethyl)pyridin-2-yl]oxy}methyl)ethyl}-2-methylpyrimidin-4-yl)-N-(2,6-difluorophenyl)piperidine-1-carboxamide], the IC50 is reported as 134 nM. Work on `CC(=O)NCCC(=O)NCC(O)(COc1cccc(C(F)(F)F)n1)c1cnc(C)nc1C1CCN(C(=O)Nc2c(F)cccc2F)CC1` (stereo not drawn) [Compound N41, 4-(5-{2-[(N-Acetyl-beta-alanyl)amino]-1-hydroxy-1-({[6-(trifluoromethyl)pyridin-2-yl]oxy}methyl)ethyl}-2-methylpyrimidin-4-yl)-N-(2,6-difluorophenyl)piperidine-1-carboxamide] yielded an IC50 of 150 nM. Molecule `Cc1ncc(C(O)(CNC(=O)CCO)COc2cccc(C(F)(F)F)n2)c(C2CCN(C(=O)Nc3c(F)cccc3F)CC2)n1` (stereo not drawn) [Compound N42, N-(2,6-Difluorophenyl)-4-(5-{1-hydroxy-2-[(3-hydroxypropanoyl)amino]-1-({[6-(trifluoromethyl)pyridin-2-yl]oxy}methyl)ethyl}-2-methylpyrimidin-4-yl)piperidine-1-carboxamide] has an IC50 of 183 nM. `CC(=O)NCC(O)(COc1cccc(C(F)(F)F)n1)c1cnc(C)nc1C1CCN(C(=O)Oc2ccccc2F)CC1` (stereo not drawn) [Compound N43, 2-Fluorophenyl 4-{5-[2-(acetylamino)-1-hydroxy-1-({[6-(trifluoromethyl)pyridin-2-yl]oxy}methyl)ethyl]-2-methylpyrimidin-4-yl}piperidine-1-carboxylate] showed an IC50 of 9.2 nM. `Cc1ncc(C(O)(COc2cccc(C(F)(F)F)n2)C(=O)O)c(C2CCN(C(=O)Nc3c(F)cccc3F)CC2)n1` (stereo not drawn) [Compound N44, 2-[4-(1-{[(2,6-Difluorophenyl)amino]carbonyl}piperidin-4-yl)-2-methylpyrimidin-5-yl]-2-hydroxy-3-{[6-(trifluoromethyl)pyridin-2-yl]oxy}propanoic acid] showed an IC50 of 899 nM. With `CNC(=O)C(O)(COc1cccc(C(F)(F)F)n1)c1cnc(C)nc1C1CCN(C(=O)Nc2c(F)cccc2F)CC1` (stereo not drawn) [Compound N45, N-(2,6-Difluorophenyl)-4-{5-[1-hydroxy-2-(methylamino)-2-oxo-1-({[6-(trifluoromethyl)pyridin-2-yl]oxy}methyl)ethyl]-2-methylpyrimidin-4-yl}piperidine-1-carboxamide] the IC50 was 81.9 nM. Work on `CC(=O)NCC(O)(COc1cccc(C(F)(F)F)n1)c1cnc(C)nc1C1CCN(C(=O)Oc2ccc(F)cc2)CC1` (stereo not drawn) [Compound N46, 4-Fluorophenyl 4-{5-[2-(acetylamino)-1-hydroxy-1-({[6-(trifluoromethyl)pyridin-2-yl]oxy}methyl)ethyl]-2-methylpyrimidin-4-yl}piperidine-1-carboxylate] yielded an IC50 of 39 nM. Work on `CC(=O)NCC(O)(COc1cccc(C(F)(F)F)n1)c1cnc(C)nc1C1CCN(C(=O)Oc2c(F)cccc2F)CC1` (stereo not drawn) [Compound N47, 2,6-Difluorophenyl 4-{5-[2-(acetylamino)-1-hydroxy-1-({[6-(trifluoromethyl)pyridin-2-yl]oxy}methyl)ethyl]-2-methylpyrimidin-4-yl}piperidine-1-carboxylate] yielded an IC50 of 3.6 nM. `Cc1ncc(C(N)(C#N)COc2cccc(C(F)(F)F)n2)c(C2CCN(C(=O)Nc3c(F)cccc3F)CC2)n1` (stereo not drawn) [Compound N48, 4-[5-(1-Amino-1-cyano-2-{[6-(trifluoromethyl)pyridin-2-yl]oxy}ethyl)-2-methylpyrimidin-4-yl]-N-(2,6-difluorophenyl)piperidine-1-carboxamide] gave an IC50 of 5.6 nM.
